Data taken from USRE29675E, “O-(Halophenylcarbamyl)-N-(halophenyl) glycolamides” (Stauffer Chemical Company, priority 1977, dated 1978).
Converted amounts (≈) assume the structure as drawn.

Experiments:
Type in all cases: cell-based
[1] = system: stapylococcus aureus; test: In Vitro Vial Test (bactericidal, nutrient broth); details: 168 h, sealed vial incubated one week, read-out: Concentration (PPM) Which Inhibited Growth
Procedure: The following test illustrates utility of the compounds in controlling bacteria. This test measures the bactericidal properties of a compound when in contact with a growing bacterium. The test is conducted by partially filling a 1-ounce vial with nutrient broth. Next the test compound is added to the vial at a certain concentration, expressed in parts per million, and mixed with the broth. A water suspension of cells of stapylococcus aureus is added. The vial is then sealed and incubated for one week.

[2] = system: Scenedesmus obliquus; test: In Vitro Agar Screening Test, algae; details: Tetradesmus obliquus, modified Jack Meyers agar, room temperature, artificial light, indicates partial control at this concentration, read-out: Minimum Inhibitory Concentration
Procedure: (§1) This test measures the bactericidal, fungicidal and algaecidal properties of a compound when in contact with growing bacteria, fungi or algae in an artifical medium. The test is conducted by adding 20 ml. portions of a suitable warm sterile agar solution into 20 × 100 mm. Petri dishes. Then, the test compound, in 0.5 percent acetone solution, is added to the Petri dishes at levels of 1, 10 and 50 μg/ml. and mixed with the warm mobile agar solution. The treated agar mixture is then allowed to come to room temperature and solidify. Cells of the chosen organism are streaked on the surface of the solidified agar and are then incubated for such lengths of time that untreated samples containing no toxicant show luxurious growth typical of the particular organism. This time varies from 24 hours to one week depending on the particular organism. The fungi are incubated at 30° C. and the bacteria are incubated at 37° C. The algae are incubated at room temperature under artificial light. Nutrient agar is used as the medium in this test for the bacteria. Potato dextrose agar is used as the medium for the fungi with the exception of Trichophyton mentagrophytes for which Emmons agar is used. A modified Jack Meyers agar is used for the growth of the algae.
(§2) The extent of growth is noted at the end of the incubation period.
(§3) Representative organisms used in this test are as follows: […]

[3] = system: Trichophyton mentagrophytes; test: In Vitro Agar Screening Test, fungi; details: Emmons agar, 30° C., indicates partial control at this concentration, read-out: Minimum Inhibitory Concentration
Procedure: as §1, §2, §3

[4] = system: Desulfovibrio desulfuricans; test: Sulfate Reducing Bacteria In Vitro Test; details: Sulfate API broth with tryptone, anaerobic, room temperature, 3 to 5 days, unit from method text, read-out: minimum inhibitory concentration necessary to control the organism
Procedure: This test measures the bactericidal properties of a compound when in contact with a sulfate reducing bacteria, specifically Desulfovibrio desulfuricans. The test is conducted by dissolving the test compound in acetone to give an 0.5 percent solution. This toxicant is added to vials containing sterile Sulfate API broth with tryptone under anaerobic conditions at such levels to give final toxicant concentrations of 1, 5, 10 and 50 μg/ml. of solution. An inoculant solution of 0.5 ml of the growing organism, Desulfovibrio desulfuricans, is added to the vials followed by sufficient sterile distilled water to give a total of 10 ml. of solution in the vials. […] The following is a summary of the minimum inhibitory concentration necessary to control the organism.

[5] = system: Aspergillus oryzae; test: In Vitro Agar Screening Test, fungi; details: potato dextrose agar, 30° C., read-out: Minimum Inhibitory Concentration
Procedure: as §1, §2, §3

[6] = system: Staphylococcus aureus; test: In Vitro Agar Screening Test, bacteria; details: Stapylococcus aureus, nutrient agar, 37° C., read-out: Minimum Inhibitory Concentration
Procedure: as §1, §2, §3

[7] = system: Enterobacter aerogenes; test: In Vitro Agar Screening Test, bacteria; details: Klebsiella aerogenes, nutrient agar, 37° C., indicates partial control at this concentration, read-out: Minimum Inhibitory Concentration
Procedure: as §1, §2, §3

[8] = system: Brevibacterium ammoniagenes; test: In Vitro Agar Screening Test, bacteria; details: Corynebacterium ammoniagenes, nutrient agar, 37° C., read-out: Minimum Inhibitory Concentration
Procedure: as §1, §2, §3

[9] = system: Bacillus cereus; test: In Vitro Agar Screening Test, bacteria; details: nutrient agar, 37° C., indicates partial control at this concentration, read-out: Minimum Inhibitory Concentration
Procedure: as §1, §2, §3

MIC [4] [µg/mL]	MIC [5] [µg/mL]	MIC [6] [µg/mL]	MIC [8] [µg/mL]	Compound	MIC [1] [µg/mL]	also measured
–	–	–	–	O=C(COC(=O)Nc1ccc(Cl)c(Cl)c1)Nc1ccc(Cl)cc1 [Compound 4]	1 (≈ 2.68 µM)	–
50 (≈ 134 µM)	5 (≈ 13.4 µM)	1 (≈ 2.68 µM)	5 (≈ 13.4 µM)	O=C(COC(=O)Nc1ccc(Cl)cc1)Nc1ccc(Cl)c(Cl)c1 [Compound 1]	0.25 (≈ 0.669 µM)	MIC [2]: 1 µg/mL (≈ 2.68 µM); MIC [3]: 5 µg/mL (≈ 13.4 µM); MIC [7]: 1 µg/mL (≈ 2.68 µM)
–	–	–	–	O=C(COC(=O)Nc1cccc(Br)c1)Nc1ccc(Cl)c(Cl)c1 [Compound 6]	0.5 (≈ 1.2 µM)	–
–	–	–	–	O=C(COC(=O)Nc1ccc(Cl)c(Cl)c1)Nc1ccc(Cl)c(Cl)c1 [Compound 5]	1 (≈ 2.45 µM)	–
–	–	–	–	O=C(COC(=O)Nc1cccc(Cl)c1)Nc1ccc(Cl)cc1 [Compound 3]	5 (≈ 14.7 µM)	–
10 (≈ 26.8 µM)	> 50	1 (≈ 2.68 µM)	5 (≈ 13.4 µM)	O=C(COC(=O)Nc1cccc(Cl)c1)Nc1ccc(Cl)c(Cl)c1 [Compound 2, O-(3-Chlorophenylcarbamyl)-N-(3,4-dichlorophenyl)-glycolamide]	0.25 (≈ 0.669 µM)	MIC [9]: 1 µg/mL (≈ 2.68 µM)
